Assay results reported in the supplement of paper PMC11061612.

Legend:
Carboplatin = compound: C1CC(C1)(C(=O)[O-])C(=O)[O-].N.N.[Pt+2] [Carboplatin]; conditions: max 10 µM
Method in brief: (§1)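 Cancer cell lines were seeded into 1536-well plates in 7.5 μl medium (DMEM/F12 or RPMI, 10% FBS), held 24 hours at 37°C and 5% CO2, and dosed for 72 hours with final DMSO typically 0.2%. Luminescence from CellTiter-Glo 2.0, scaled between blank-well and DMSO-well means, served as viability. The single-agent IC50 was obtained from dose-response fits with a non-linear mixed effects model, each fit being a two-parameter logistic curve.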

AZD5363 = compound: C1CN(CCC1(C(=O)N[C@@H](CCO)C2=CC=C(C=C2)Cl)N)C3=NC=NC4=C3C=CN4 [AZD5363]; conditions: max 10 µM
Method in brief: as §1

AZD1775 = compound: C=CCn1c(=O)c2cnc(Nc3ccc(N4CCN(C)CC4)cc3)nc2n1-c1cccc(C(C)(C)O)n1 [AZD1775]; conditions: max 3 µM
Method in brief: as §1

Trametinib = compound: CC(=O)Nc1cccc(-n2c(=O)n(C3CC3)c(=O)c3c(Nc4ccc(I)cc4F)n(C)c(=O)c(C)c32)c1 [Trametinib]; conditions: max 1 µM
Method in brief: as §1

Paclitaxel = compound: CC(=O)O[C@H]1C(=O)[C@@]2(C)[C@H]([C@H](OC(=O)c3ccccc3)[C@]3(O)C[C@H](OC(=O)[C@H](O)[C@@H](NC(=O)c4ccccc4)c4ccccc4)C(C)=C1C3(C)C)[C@]1(OC(C)=O)CO[C@@H]1C[C@@H]2O [Paclitaxel]; conditions: max 3 µM
Method in brief: as §1

Palbociclib = compound: CC(=O)c1c(C)c2cnc(Nc3ccc(N4CCNCC4)cn3)nc2n(C2CCCC2)c1=O [Palbociclib]; conditions: max 10 µM
Method in brief: as §1

AZD1390 = compound: CC(C)n1c(=O)n(C)c2cnc3cc(F)c(-c4ccc(OCCCN5CCCCC5)nc4)cc3c21 [AZD1390]; conditions: max 0.3 µM
Method in brief: as §1

Venetoclax = compound: CC1(C)CCC(CN2CCN(c3ccc(C(=O)NS(=O)(=O)c4ccc(NCC5CCOCC5)c([N+](=O)[O-])c4)c(Oc4cnc5[nH]ccc5c4)c3)CC2)=C(c2ccc(Cl)cc2)C1 [Venetoclax]; conditions: max 1 µM
Method in brief: as §1

Dasatinib = compound: CC1=C(C(=CC=C1)Cl)NC(=O)C2=CN=C(S2)NC3=CC(=NC(=N3)C)N4CCN(CC4)CCO [Dasatinib]; conditions: max 2 µM
Method in brief: as §1

SG3199 = compound: CC1=CN2[C@@H](C1)C=NC3=CC(=C(C=C3C2=O)OC)OCCCCCOC4=C(C=C5C(=C4)N=C[C@@H]6CC(=CN6C5=O)C)OC [SG3199]; conditions: max 0.001 µM
Method in brief: as §1

AZD2811 = compound: CCN(CCO)CCCOc1ccc2c(Nc3cc(CC(=O)Nc4cccc(F)c4)[nH]n3)ncnc2c1 [AZD2811]; conditions: max 1 µM
Method in brief: as §1

SN-38 = compound: CCc1c2c(nc3ccc(O)cc13)-c1cc3c(c(=O)n1C2)COC(=O)[C@]3(O)CC [SN-38]; conditions: max 0.3 µM
Method in brief: as §1

AZD0156 = compound: CN(C)CCCOc1ccc(-c2ccc3ncc4c(c3c2)n(C2CCOCC2)c(=O)n4C)cn1 [AZD0156]; conditions: max 3 µM
Method in brief: as §1

AZD4320 = compound: CN(CC[C@H](CSC1=CC=CC=C1)NC2=C(C=C(C=C2)S(=O)(=O)NC(=O)C3=CC=C(C=C3)N4CCC(CC4)[C@H](C5=CC=CC=C5C6=CC=C(C=C6)Cl)O)S(=O)(=O)C(F)(F)F)CCO [AZD4320]; conditions: max 1 µM
Method in brief: as §1

Alisertib = compound: COc1cc(Nc2ncc3c(n2)-c2ccc(Cl)cc2C(c2c(F)cccc2OC)=NC3)ccc1C(=O)O [Alisertib]; conditions: max 10 µM
Method in brief: as §1

Etoposide = compound: COc1cc([C@@H]2c3cc4c(cc3[C@@H](O[C@@H]3O[C@@H]5CO[C@@H](C)O[C@H]5[C@H](O)[C@H]3O)[C@H]3COC(=O)[C@H]23)OCO4)cc(OC)c1O [Etoposide]; conditions: max 10 µM
Method in brief: as §1

Gefitinib = compound: COc1cc2ncnc(Nc3ccc(F)c(Cl)c3)c2cc1OCCCN1CCOCC1 [Gefitinib]; conditions: max 10 µM
Method in brief: as §1

Prexasertib = compound: COc1cccc(OCCCN)c1-c1cc(Nc2cnc(C#N)cn2)n[nH]1 [Prexasertib]; conditions: max 1 µM
Method in brief: as §1

Doxorubicin = compound: COc1cccc2c1C(=O)c1c(O)c3c(c(O)c1C2=O)C[C@@](O)(C(=O)CO)C[C@@H]3O[C@H]1C[C@H](N)[C@H](O)[C@H](C)O1 [Doxorubicin]; conditions: max 1 µM
Method in brief: as §1

AZD5153 = compound: COc1nnc2ccc(N3CCC(c4ccc(OCCN5CCN(C)C(=O)[C@H]5C)cc4)CC3)nn12 [AZD5153]; conditions: max 1 µM
Method in brief: as §1

Lapatinib = compound: CS(=O)(=O)CCNCc1ccc(-c2ccc3ncnc(Nc4ccc(OCc5cccc(F)c5)c(Cl)c4)c3c2)o1 [Lapatinib]; conditions: max 10 µM
Method in brief: as §1

AZD8186 = compound: C[C@@H](Nc1cc(F)cc(F)c1)c1cc(C(=O)N(C)C)cc2c(=O)cc(N3CCOCC3)oc12 [AZD8186]; conditions: max 10 µM
Method in brief: as §1

Crizotinib = compound: C[C@@H](Oc1cc(-c2cnn(C3CCNCC3)c2)cnc1N)c1c(Cl)ccc(F)c1Cl [Crizotinib]; conditions: max 10 µM
Method in brief: as §1

Savolitinib = compound: C[C@@H](c1ccc2nccn2c1)n1nnc2ncc(-c3cnn(C)c3)nc21 [Savolitinib]; conditions: max 1 µM
Method in brief: as §1

AZD6738 = compound: C[C@@H]1COCCN1C2=NC(=NC(=C2)C3(CC3)[S@](=N)(=O)C)C4=C5C=CNC5=NC=C4 [AZD6738]; conditions: max 10 µM
Method in brief: as §1

AZD5991 = compound: Cc1c2c(nn1C)CSCc1cc(n(C)n1)CSc1cc(c3ccccc3c1)OCCCc1c(C(=O)O)n(C)c3c-2c(Cl)ccc13 [AZD5991]; conditions: max 1 µM
Method in brief: as §1

AZD7648 = compound: Cc1cc2ncnn2cc1Nc1ncc2c(n1)n(C1CCOCC1)c(=O)n2C [AZD7648]; conditions: max 10 µM
Method in brief: as §1

Taselisib = compound: Cc1nc(-c2cn3c(n2)-c2ccc(-c4cnn(C(C)(C)C(N)=O)c4)cc2OCC3)n(C(C)C)n1 [Taselisib]; conditions: max 10 µM
Method in brief: as §1

Selumetinib = compound: Cn1cnc2c(F)c(Nc3ccc(Br)cc3Cl)c(C(=O)NOCCO)cc21 [Selumetinib]; conditions: max 10 µM
Method in brief: as §1

SRA737 = compound: N#Cc1cnc(Nc2cc(NC[C@H]3CNCCO3)c(C(F)(F)F)cn2)cn1 [SRA737]; conditions: max 10 µM
Method in brief: as §1

MK-2206 = compound: NC1(c2ccc(-c3nc4ccn5c(=O)[nH]nc5c4cc3-c3ccccc3)cc2)CCC1 [MK-2206]; conditions: max 10 µM
Method in brief: as §1

Gemcitabine = compound: Nc1ccn([C@@H]2O[C@H](CO)[C@@H](O)C2(F)F)c(=O)n1 [Gemcitabine]; conditions: max 0.3 µM
Method in brief: as §1

[1] = compound: O=C(Nc1ccc2[nH]nc(-c3ccncc3)c2c1)[C@@H]1CCN(CC(=O)N2CCN(c3ccc(-c4ncccn4)cc3)CC2)C1; conditions: max 5 µM
Method in brief: as §1

Olaparib = compound: O=C(c1cc(Cc2n[nH]c(=O)c3ccccc23)ccc1F)N1CCN(C(=O)C2CC2)CC1 [Olaparib]; conditions: max 10 µM
Method in brief: as §1

5-Fluorouracil = compound: O=c1[nH]cc(F)c(=O)[nH]1 [5-Fluorouracil]; conditions: max 20 µM
Method in brief: as §1

| Cell Line | IC50, cell viability 72 h (Carboplatin) | IC50, cell viability 72 h (AZD5363) | IC50, cell viability 72 h (AZD1775) | IC50, cell viability 72 h (Trametinib) | IC50, cell viability 72 h (Paclitaxel) | IC50, cell viability 72 h (Palbociclib) | IC50, cell viability 72 h (AZD1390) | IC50, cell viability 72 h (Venetoclax) | IC50, cell viability 72 h (Dasatinib) | IC50, cell viability 72 h (SG3199) | IC50, cell viability 72 h (AZD2811) | IC50, cell viability 72 h (SN-38) | IC50, cell viability 72 h (AZD0156) | IC50, cell viability 72 h (AZD4320) | IC50, cell viability 72 h (Alisertib) | IC50, cell viability 72 h (Etoposide) | IC50, cell viability 72 h (Gefitinib) | IC50, cell viability 72 h (Prexasertib) | IC50, cell viability 72 h (Doxorubicin) | IC50, cell viability 72 h (AZD5153) | IC50, cell viability 72 h (Lapatinib) | IC50, cell viability 72 h (AZD8186) | IC50, cell viability 72 h (Crizotinib) | IC50, cell viability 72 h (Savolitinib) | IC50, cell viability 72 h (AZD6738) | IC50, cell viability 72 h (AZD5991) | IC50, cell viability 72 h (AZD7648) | IC50, cell viability 72 h (Taselisib) | IC50, cell viability 72 h (Selumetinib) | IC50, cell viability 72 h (SRA737) | IC50, cell viability 72 h (MK-2206) | IC50, cell viability 72 h (Gemcitabine) | IC50, cell viability 72 h [1] | IC50, cell viability 72 h (Olaparib) | IC50, cell viability 72 h (5-Fluorouracil) |
| --- | --- | --- | --- | --- | --- | --- | --- | --- | --- | --- | --- | --- | --- | --- | --- | --- | --- | --- | --- | --- | --- | --- | --- | --- | --- | --- | --- | --- | --- | --- | --- | --- | --- | --- | --- |
| OCI-AML2 (Acute Myeloid Leukemia) | > 10 µM | 7.58 µM | 0.358 µM | < 0.001 µM | 0.00445 µM | 3.17 µM | > 0.3 µM | 0.00792 µM | > 2 µM | > 0.001 µM | 0.341 µM | 0.0047 µM | > 3 µM | 0.00633 µM | 1.34 µM | 0.503 µM | > 10 µM | 0.0124 µM | 0.0123 µM | 0.043 µM | > 10 µM | > 10 µM | 2.78 µM | > 1 µM | 0.965 µM | 0.193 µM | > 10 µM | > 10 µM | 0.0366 µM | 1.17 µM | > 10 µM | 0.00797 µM | 0.0515 µM | 6.69 µM | 1.2 µM |
| SK-N-FI (Neuroblastoma) | > 10 µM | > 10 µM | 1.6 µM | 0.117 µM | 2.25 µM | > 10 µM | > 0.3 µM | > 1 µM | > 2 µM | > 0.001 µM | > 1 µM | 0.157 µM | > 3 µM | > 1 µM | 2.48 µM | > 10 µM | > 10 µM | 0.0603 µM | > 1 µM | 0.447 µM | > 10 µM | > 10 µM | > 10 µM | > 1 µM | 8.51 µM | > 1 µM | > 10 µM | 0.955 µM | 7.75 µM | > 10 µM | > 10 µM | > 0.3 µM | > 5 µM | > 10 µM | > 20 µM |
| SN12C (Kidney Carcinoma) | > 10 µM | > 10 µM | > 3 µM | > 1 µM | > 3 µM | > 10 µM | > 0.3 µM | > 1 µM | > 2 µM | > 0.001 µM | > 1 µM | 0.29 µM | > 3 µM | > 1 µM | > 10 µM | > 10 µM | > 10 µM | > 1 µM | > 1 µM | > 1 µM | > 10 µM | > 10 µM | > 10 µM | > 1 µM | > 10 µM | > 1 µM | > 10 µM | > 10 µM | > 10 µM | > 10 µM | > 10 µM | > 0.3 µM | > 5 µM | > 10 µM | > 20 µM |
